Laboratory results reported in patent publication US8889683B2, “Substituted quinoxalines as inhibitors of fatty acid binding protein” (Merck Sharp & Dohme Corp., priority 2010, dated 2014).

Biological target: FABP4 (Homo sapiens, UniProt P15090)
Assay: TdF-based ligand binding affinity (FABP inhibitory activity assay)
Settings: TdF-based ligand binding affinity constant
Description: Theoretical basis for TdF-based ligand binding affinity constant
The derivation of TdF-based ligand binding affinity constant (Kd) followed closely those previously formulated by Brandts and Lin, Biochemistry 29 (1990) 6927-6940. In brief, the binding constant of the ligand at the Tm is expressed as below: […]
where T0 is the midpoint of unfolding for unliganded protein and Tm is the midpoint of unfolding in presence of ligand. [LTm] is free ligand at Tm. The ΔHu and ΔCpu are the enthalpy of unfolding and heat capacity change of unfolding for the protein respectively. The ΔCPu is proportional to the size of protein and is an approximate quantity in the above equation (empirically, ΔCpu=(MW of protein/115)*14 cal/mol*K). Following algorithm derived by Mayhood et al, (Analytical Biochemistry 345 (2005) 187-197), the T0 and ΔHu can be determined separately from nonlinear regression fitting the temperature dependent protein alone curve to the following equation: […]
The nonlinear regression fitting in general readily reaches convergence by properly constraining the initial values for the fitting parameters (e.g. the initial “guess” for the ΔHu was constrained to 120 kcal/mol; initial Yn and mr, were set to 1 and zero to best represent the melting curve along the low temperature region; negative slope of −0.5 was initially chosen for mu; initial Tm was also constrained to 50° C.).
(see Brandts et al and Mayhood et al, shown above) where ΔHL (T) is the van't Hoff enthalpy of ligand binding at temperature T and ΔCpL is the heat capacity upon ligand binding. For simplicity, the ΔCpL and ΔHL (T) were set to zero and −7 kcal/mol respectively. (The ΔCpL accounts for minimal portion of total protein-ligand binding energetics and is therefore set to zero (For example, see Hossein Naghibi et al, Proc. Natl. Acad. Sci. 92, 5597-5599 (1995), where ΔCpL was estimated to ˜2% of ΔHL at 25° C. obtained from calorimetric study of binding RNase A and 2′-CMP)).

FABP4, sequence (P15090 whole entry): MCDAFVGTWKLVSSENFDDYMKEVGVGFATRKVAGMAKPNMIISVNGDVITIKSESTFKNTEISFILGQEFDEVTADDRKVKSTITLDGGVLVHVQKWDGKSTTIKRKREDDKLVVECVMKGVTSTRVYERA

| Kd [µM] | SMILES |
| --- | --- |
| 0.08 | O=C(c1nc2cc(F)c(F)cc2nc1O)N1CCCC1Cc1cccc(Cl)c1 (racemic) [Compound 1-2, (+/−)-[2-(3-chlorobenzyl)pyrrolidin-1-yl](6,7-difluoro-3-hydroxyquinoxalin-2-yl)methanone] |
| 0.3 | O=C(c1nc2cc(F)ccc2nc1O)N1CCCC1Cc1cccc(Cl)c1 (racemic) [Compound 1-3, (+/−)-[2-(3-Chlorobenzyl)pyrrolidin-1-yl](7-fluoro-3-hydroxyquinoxalin-2-yl)methanone] |
| 0.18 | O=C(c1nc2ccc(F)cc2nc1O)N1CCCC1Cc1cccc(Cl)c1 (racemic) [Compound 1-4, (+/−)-[2-(3-Chlorobenzyl)pyrrolidin-1-yl](6-fluoro-3-hydroxyquinoxalin-2-yl)methanone] |
| 0.11 | O=C(c1nc2c(Cl)cccc2nc1O)N1CCCC1Cc1cccc(Cl)c1 (racemic) [Compound 1-8, (+/−)-(8-Chloro-3-hydroxyquinoxalin-2-yl)[2-(3-chlorobenzyl)pyrrolidin-1-yl]methanone] |
| 0.41 | O=C(c1nc2cc(Cl)ccc2nc1O)N1CCCC1Cc1cccc(Cl)c1 (racemic) [Compound 1-9, (+/−)-(7-Chloro-3-hydroxyquinoxalin-2-yl)[2-(3-chlorobenzyl)pyrrolidin-1-yl]methanone] |
| 0.25 | O=C(c1nc2ccc(Cl)cc2nc1O)N1CCCC1Cc1cccc(Cl)c1 (racemic) [Compound 1-10, (+/−)-(6-Chloro-3-hydroxyquinoxalin-2-yl)[2-(3-chlorobenzyl)pyrrolidin-1-yl]methanone] |
| 0.003 | O=C(c1nc2cccc(Cl)c2nc1O)N1CCCC1Cc1cccc(Cl)c1 (racemic) [Compound 1-11, (+/−)-(5-Chloro-3-hydroxyquinoxalin-2-yl)[2-(3-chlorobenzyl)pyrrolidin-1-yl]methanone] |
| 0.063 | O=C(c1nc2cc(Cl)c(Cl)cc2nc1O)N1CCCC1Cc1cccc(Cl)c1 (racemic) [Compound 1-13, (+/−)-[2-(3-Chlorobenzyl)pyrrolidin-1-yl](6,7-dichloro-3-hydroxyquinoxalin-2-yl)methanone] |
| 0.63 | O=C(c1nc2cc(I)ccc2nc1O)N1CCCC1Cc1cccc(Cl)c1 (racemic) [Compound 1-18, (+/−)-[2-(3-Chlorobenzyl)pyrrolidin-1-yl](3-hydroxy-7-iodoquinoxalin-2-yl)methanone] |
| 0.46 | O=C(c1nc2ccc(I)cc2nc1O)N1CCCC1Cc1cccc(Cl)c1 (racemic) [Compound 1-19, (+/−)-[2-(3-Chlorobenzyl)pyrrolidin-1-yl](3-hydroxy-6-iodoquinoxalin-2-yl)methanone] |
| 0.95 | O=C(c1nc2cc(OC(F)(F)F)ccc2nc1O)N1CCCC1Cc1cccc(Cl)c1 (racemic) [Compound 1-20, (+/−)-[2-(3-Chlorobenzyl)pyrrolidin-1-yl][3-hydroxy-7-(trifluoromethoxy)quinoxalin-2-yl]methanone] |
| 0.22 | O=C(c1nc2ccc(OC(F)(F)F)cc2nc1O)N1CCCC1Cc1cccc(Cl)c1 (racemic) [Compound 1-21, (+/−)-[2-(3-Chlorobenzyl)pyrrolidin-1-yl][3-hydroxy-6-(trifluoromethoxy)quinoxalin-2-yl]methanone] |
| 0.024 | O=C(c1nc2cc(SC(F)(F)F)ccc2nc1O)N1CCCC1Cc1cccc(Cl)c1 (racemic) [Compound 1-22, (+/−)-[2-(3-Chlorobenzyl)pyrrolidin-1-yl][3-hydroxy-7-(trifluoromethylthio]quinoxalin-2-yl)methanone] |
| 0.024 | O=C(c1nc2ccc(SC(F)(F)F)cc2nc1O)N1CCCC1Cc1cccc(Cl)c1 (racemic) [Compound 1-23, (+/−)-[2-(3-Chlorobenzyl)pyrrolidin-1-yl][3-hydroxy-6-(trifluoromethylthio]quinoxalin-2-yl)methanone] |
| 0.3 | O=C(c1nc2cc(S(=O)(=O)C(F)(F)F)ccc2nc1O)N1CCCC1Cc1cccc(Cl)c1 (racemic) [Compound 1-24, (+/−)-[2-(3-Chlorobenzyl)pyrrolidin-1-yl][3-hydroxy-7-(trifluoromethylsulfonyl)quinoxalin-2-yl]methanone] |
| 0.1 | O=C(c1nc2ccc(S(=O)(=O)C(F)(F)F)cc2nc1O)N1CCCC1Cc1cccc(Cl)c1 (racemic) [Compound 1-25, (+/−)-[2-(3-Chlorobenzyl)pyrrolidin-1-yl][3-hydroxy-6-(trifluoromethylsulfonyl)quinoxalin-2-yl]methanone] |
| 4.94 | COc1ccc2nc(O)c(C(=O)N3CCCC3Cc3cccc(Cl)c3)nc2c1 (racemic) [Compound 1-27, (+/−)-[2-(3-Chlorobenzyl)pyrrolidin-1-yl](3-hydroxy-7-methoxyquinoxalin-2-yl)methanone] |

| Kd [µM] | SMILES |
| --- | --- |
| 0.002 | O=C(c1nc2cccc(C(F)(F)F)c2nc1O)N1CCCC1Cc1cccc(Cl)c1 (racemic) [Compound 1-30, (+/−)-[2-(3-Chlorobenzyl)pyrrolidin-1-yl][3-hydroxy-5-(trifluoromethyl)quinoxalin-2-yl]methanone] |
| 0.5 | N#Cc1ccc2nc(C(=O)N3CCCC3Cc3cccc(Cl)c3)c(O)nc2c1 (racemic) [Compound 1-31, (+/−)-2-[2-(3-Chlorobenzyl)pyrrolidine-1-carbonyl]-3-hydroxyquinoxaline-6-carbonitrile] |
| 0.3 | O=C(c1nc2ncccc2nc1O)N1CCCC1Cc1cccc(Cl)c1 (racemic) [Compound 1-32, (+/−)-[2-(3-Chlorobenzyl)pyrrolidin-1-yl](2-hydroxypyrido[2,3-b]pyrazin-3-yl)methanone] |
| 0.6 | O=C(c1nc2cccnc2nc1O)N1CCCC1Cc1cccc(Cl)c1 (racemic) [Compound 1-33, (+/−)-[2-(3-Chlorobenzyl)pyrrolidin-1-yl](3-hydroxypyrido[3,2-b]pyrazin-2-yl)methanone] |
| 0.85 | O=C(c1nc2cc(Br)ccc2nc1O)N1CCCC1Cc1cccc(Cl)c1 (racemic) [Compound 1-37, (+/−)-(7-Bromo-3-hydroxyquinoxalin-2-yl)[2-(3-chlorobenzyl)pyrrolidin-1-yl]methanone] |
| 22.5 | COc1cc2nc(O)c(C(=O)N3CCCC3Cc3cccc(Cl)c3)nc2cc1OC (racemic) [Compound 1-38, (+/−)-[2-(3-Chlorobenzyl)pyrrolidin-1-yl](3-hydroxy-6,7-dimethoxyquinoxalin-2-yl)methanone] |
| 0.2 | O=C(c1nc2ccc(C(F)(F)F)cc2nc1O)N1CCCC1Cc1cccc(Cl)c1 (racemic) [Compound 1-39, (+/−)-[2-(3-Chlorobenzyl)pyrrolidin-1-yl][3-hydroxy-6-(trifluoromethyl)quinoxalin-2-yl]methanone] |
| 1.34 | Cc1ccc(CC2CCCN2C(=O)c2nc3ccccc3nc2O)cc1C (racemic) [Compound 1-42, (+/−)-[2-(3,4-Dimethylbenzyl)pyrrolidin-1-yl](3-hydroxyquinoxalin-2-yl)methanone] |
| 11.9 | CCC(c1ccccc1)C1CCCN1C(=O)c1nc2ccccc2nc1O (racemic) [Compound 1-48, (+/−)-(3-Hydroxyquinoxalin-2-yl)[2-(1-phenylpropyl)pyrrolidin-1-yl]methanone] |
| 1.8 | O=C(c1nc2ccccc2nc1O)N1CCCC1Cc1cccc(F)c1 (racemic) [Compound 1-51, (+/−)-[2-(3-Fluorobenzyl)pyrrolidin-1-yl](3-hydroxyquinoxalin-2-yl)methanone] |
| 5.68 | O=C(c1nc2ccccc2nc1O)N1CCCC1Cc1c(F)cccc1Cl (racemic) [Compound 1-52, (+/−)-[2-(2-Chloro-6-fluorobenzyl)pyrrolidin-1-yl](3-hydroxyquinoxalin-2-yl)methanone] |
| 23 | O=C(c1nc2ccccc2nc1O)N1CCCC1COc1ccc(F)cc1 (racemic) [Compound 1-55, (+/−)-{2-[(4-fluorophenoxy)methyl]pyrrolidin-1-yl}(3-hydroxyquinoxalin-2-yl)methanone] |
| 15.1 | O=C(c1nc2ccccc2nc1O)N1CCCC1COc1ccc(F)c(Cl)c1 (racemic) [Compound 1-64, (+/−)-{2-[(3-Chloro-4-fluorophenoxy)methyl]pyrrolidin-1-yl}(3-hydroxyquinoxalin-2-yl)methanone] |
| 14.2 | O=C(c1nc2ccccc2nc1O)N1CCCCC1Cc1ccccc1 (racemic) [Compound 1-72, (+/−)-(2-Benzylpiperidin-1-yl)(3-hydroxyquinoxalin-2-yl)methanone] |
| 2.25 | COc1ccccc1CC1CCCCN1C(=O)c1nc2ccccc2nc1O (racemic) [Compound 1-73, (+/−)-(3-Hydroxyquinoxalin-2-yl)[2-(2-methoxybenzyl)piperidin-1-yl]methanone] |
| 4.4 | O=C(c1nc2ccccc2nc1O)N1CCCCC1Cc1cccc(F)c1 (racemic) [Compound 1-74, (+/−)-[2-(3-Fluorobenzyl)piperidin-1-yl](3-hydroxyquinoxalin-2-yl)methanone] |
| 0.98 | O=C(c1nc2ccccc2nc1O)N1CCCCC1Cc1cccc(C(F)(F)F)c1 (racemic) [Compound 1-75, (+/−)-(3-Hydroxyquinoxalin-2-yl) {2-[3-(trifluoromethyl)benzyl]piperidin-1-yl}methanone] |
